Reference: ChEMBL document CHEMBL3045567, “Heterocycles 23: Synthesis, characterization and anticancer activity of new hydrazinoselenazole derivatives” (Med Chem Res, 2013)

Legend:
DU-145 = test: Cytotoxicity against human DU145 cells after 72 hrs by XTT assay; format: functional, cell-based; details: DU-145, 72 h
HepG2 = test: Cytotoxicity against human HepG2 cells after 72 hrs by XTT assay; format: functional, cell-based; details: HepG2, 72 h

SMILES	IC50 (DU-145) [µM]	IC50 (HepG2) [µM]
CC(=O)N(C(=O)c1ccccc1)N(C(C)=O)c1nc(-c2ccccc2)c[se]1	> 58.6	> 58.6
CC(=O)N(C(=O)c1ccc(Cl)cc1)N(C(C)=O)c1nc(C)c[se]1	> 62.7	> 62.7
CC(=O)N(C(=O)c1ccc(Cl)cc1)N(C(C)=O)c1nc(-c2ccccc2)c[se]1	> 54.3	> 54.3
CC(=O)N(/N=C/c1ccc(Cl)cc1)c1nc(CCl)c[se]1	64.7	> 66.7
CC(=O)N(/N=C/c1ccc(Cl)cc1)c1nc(-c2ccccc2)c[se]1	> 62.1	> 62.1
CCOC(=O)c1[se]c(N(/N=C/c2ccc(Cl)cc2)C(C)=O)nc1C	> 60.6	55.1
COc1ccc(/C=N/N(C(C)=O)c2nc(C)c[se]2)cc1	> 74.4	> 74.4
COc1ccc(/C=N/N(C(C)=O)c2nc(-c3ccccc3)c[se]2)cc1	> 62.8	> 62.8
CC(=O)N(/N=C/c1csc(-c2ccccc2)n1)c1nc(CCl)c[se]1	19.6	19.3
CC(=O)c1[se]c(N(/N=C/c2csc(-c3ccccc3)n2)C(C)=O)nc1C	31.3	29.4
NC(=[Se])NNC(=O)c1ccc(Cl)cc1	7.59	10.7
Cc1c[se]c(NNC(=O)c2ccccc2)n1	> 89.2	> 89.2
O=C(NNc1nc(-c2ccccc2)c[se]1)c1ccccc1	> 73	> 73
Cc1c[se]c(NNC(=O)c2ccc(Cl)cc2)n1	> 79.5	> 79.5
O=C(NNc1nc(-c2ccccc2)c[se]1)c1ccc(Cl)cc1	65.1	62.9
CC(=O)N(C(=O)c1ccccc1)N(C(C)=O)c1nc(C)c[se]1	> 68.6	> 68.6

SMILES	IC50 (DU-145) [µM]	IC50 (HepG2) [µM]
NC(=[Se])N/N=C/c1ccc(Cl)cc1	8.63	13
COc1ccc(/C=N/NC(N)=[Se])cc1	30.3	11.3
NC(=[Se])N/N=C/c1csc(-c2ccccc2)n1	6.14	9.18
Cc1c[se]c(N/N=C/c2ccc(Cl)cc2)n1	49.4	56.5
ClCc1c[se]c(N/N=C/c2ccc(Cl)cc2)n1	> 75.1	> 75.1
Clc1ccc(/C=N/Nc2nc(-c3ccccc3)c[se]2)cc1	54.2	42.5
CCOC(=O)c1[se]c(N/N=C/c2ccc(Cl)cc2)nc1C	47.7	52.8
COc1ccc(/C=N/Nc2nc(C)c[se]2)cc1	> 85	83.2
COc1ccc(/C=N/Nc2nc(-c3ccccc3)c[se]2)cc1	50.9	50.5
ClCc1c[se]c(N/N=C/c2csc(-c3ccccc3)n2)n1	16.4	18.8
CC(=O)c1[se]c(N/N=C/c2csc(-c3ccccc3)n2)nc1C	49.9	61.3
CC(=O)N(/N=C/c1ccc(Cl)cc1)c1nc(C)c[se]1	60.6	59.2
NC(=[Se])NNC(=O)c1ccccc1 [BENZOYL-SELENOSEMICARBAZIDE]	35.1	34.8
NC(=[Se])N/N=C/c1ccccc1 [BENZYLIDEN-SELENOSEMICARBAZIDE]	40.8	39.1
COc1cccc2c1C(=O)c1c(O)c3c(c(O)c1C2=O)C[C@@](O)(C(=O)CO)C[C@@H]3O[C@H]1C[C@H](N)[C@H](O)[C@H](C)O1 [DOXORUBICIN]	3.27	4.89
